Here are results for 15 molecules from patent US20110230497A1, “BIOLOGICALLY ACTIVE AMIDES” (H. Lundbeck A/S, priority 2008, published 2011).

As a reminder, the Ki is a dissociation constant, usually derived from enzyme kinetics or from competition with a known ligand.

The target in test [1] is T1, NPY Y5 receptor (Homo sapiens, UniProt Q15761).
T1 sequence (Q15761 1-445): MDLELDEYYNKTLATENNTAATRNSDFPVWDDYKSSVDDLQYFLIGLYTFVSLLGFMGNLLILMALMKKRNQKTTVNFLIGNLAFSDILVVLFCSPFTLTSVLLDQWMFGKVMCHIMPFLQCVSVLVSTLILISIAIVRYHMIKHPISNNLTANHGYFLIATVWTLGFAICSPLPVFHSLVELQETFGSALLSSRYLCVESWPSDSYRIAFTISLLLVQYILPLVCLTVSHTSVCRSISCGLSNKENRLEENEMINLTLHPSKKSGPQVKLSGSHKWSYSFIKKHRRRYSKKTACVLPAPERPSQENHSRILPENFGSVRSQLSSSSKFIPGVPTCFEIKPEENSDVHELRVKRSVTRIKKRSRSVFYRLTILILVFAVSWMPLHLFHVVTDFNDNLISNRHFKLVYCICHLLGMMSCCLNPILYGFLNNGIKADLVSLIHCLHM
Kind of test: Radioligand (125I-PYY) binding to membrane suspensions, cloned human NPY Y5 receptor. On the set-up: expressed in transfected cells; host or cells: LM(tk-) cells (typically). As to conditions: 125I-PYY competition binding, membranes of transfected cells; read-out: Ki (nM), binding affinity of selected compounds. Here is the method: The pharmacological properties of the compounds of the present invention were evaluated at the cloned human NPY Y5 receptor using the protocols disclosed in U.S. Pat. No. 6,124,331, the contents of which are hereby incorporated by reference, or in an assay as similarly described therein for NPY Y5 binding activity. The procedures for cell culture, transient transfection and membrane harvest, which are well known in the art, are described therein
Briefly, membrane suspensions from transfected cells (typically expressed in LM(tk-) cells) and ^125I-PYY radioligand (PerkinElmer, Waltham, Mass.) were diluted in binding buffer supplemented with 0.1% bovine serum albumin to yield an optimal membrane protein concentration so that ^125I-PYY bound by membranes in the assay was less than 10% of ^125I-PYY delivered to the sample (100,000 dpm/sample=0.08 nM for competition binding assays). Test compounds were diluted to desired concentrations with supplemented binding buffer in the presence of 30% DMSO. The binding assay was performed in 96-well polypropylene microtiter plates by mixing ^125I-PYY, test compound (25 μL), and finally, membrane suspensions (200 μL). Final DMSO=3%. Samples were incubated in at room temperature for about 120 min. Incubations were terminated by filtration over Whatman GF/C filters (pre-coated with 1% polyethyleneimine and air-dried before use), followed by washing with ice-cold binding buffer. Filter-trapped membranes were impregnated with MeltiLex solid scintillant (Wallac, Turku, Finland) and counted for ^125I-PYY in a Wallac MicroBeta Trilux. Non-specific binding was defined by 1000 nM porcine NPY. Specific binding was typically 80%; most non-specific binding was associated with the filter. Binding data were analyzed using nonlinear regression and statistical techniques available in the GraphPAD Prism package (San Diego, Calif.).

For test [2], the target named is T1, NPY Y5 receptor. Kind of test: NPY Y5-dependent inhibition of forskolin-stimulated cAMP accumulation. To be noted: effect on agonist (NPY) activity, cAMP HTRF. On the set-up: expressed in transfected cells. In kind it is cell-based. Here is the method: Stably transfected cells were seeded into 96-well microtiter plates and cultured until confluent. To reduce the potential for receptor desensitization, the serum component of the media was reduced to 1.5% for 4 to 16 hours before the assay. Cells were washed in […], or HBS (150 mM NaCl, 20 mM HEPES, 1 mM CaCl2, 5 mM KCl, 1 mM MgCl2, and 10 mM glucose) supplemented with 0.1% bovine serum albumin plus 100 uM IBMX. Test compounds were diluted to desired concentrations with assay buffer in the presence of 10% DMSO, then transferred to the cell plate and allowed to incubate for 20 min at 37° C. in 5% CO2 (final DMSO=1%). Cells were then stimulated with NPY (up to 10 uM) for a period of 5 min, followed by forskolin (10 uM) for another 5 min. The assay was then terminated and intracellular cAMP was quantified by with highthroughput time-resolved fluorometry (HTRF kit from CisBio, Bedford, Mass.). The effect of the test compound on agonist (NPY) activity were analyzed using nonlinear regression and statistical techniques available in the GraphPAD Prism package (San Diego, Calif.).
A general note: cAMP levels reflect the balance of adenylyl cyclase and phosphodiesterase activity.

As for `CC(=O)N1CCN(CC(=O)Nc2ccc(-c3cc(F)cc(F)c3)cn2)CC1` [Example 1a, 2-(4-Acetyl-piperazin-1-yl)-N-[5-(3,5-difluoro-phenyl)-pyridin-2-yl]-acetamide], the Ki in test [1] turned out to be 220 nM. On the same count and under the same terms, under `CC(=O)N1CCN(CC(=O)Nc2ccc(-c3cc(F)cc(F)c3)cn2)C[C@@H]1C` [Example 1e, 2-((S)-4-Acetyl-3-methyl-piperazin-1-yl)-N-[5-(3,5-difluoro-phenyl)-pyridin-2-yl]-acetamide] stands 120 nM.

On to `CC(=O)N1CCC(CC(=O)Nc2ccc(-c3cc(F)cc(F)c3)cn2)CC1` [Example 2a, 2-(1-Acetyl-piperidin-4-yl)-N-[5-(3,5-difluoro-phenyl)-pyridin-2-yl]-acetamide], for which the “function at the NPY Y5 receptor” value in test [2] is “antagonists”. Moreover, the Ki in test [1] was found to be 46 nM. For the molecule `CS(=O)(=O)N1CCC(CC(=O)Nc2ccc(-c3cc(F)cc(F)c3)nc2)CC1` [Example 2aj, N-[6-(3,5-Difluoro-phenyl)-pyridin-3-yl]-2-(1-methanesulfonyl-piperidin-4-yl)-acetamide], the Ki in test [1] came out at 28 nM. As for `O=C(C[C@H]1CCN2C(=O)CC[C@H]2C1)Nc1ccc(-c2cc(F)cc(F)c2)cn1` [Example 3a], the inhibition constant (Ki) in test [1] turned out to be 36 nM. On to `O=C(C[C@H]1CCN2C(=O)OC[C@H]2C1)Nc1ccn(-c2ccc(Cl)cc2F)n1` [Example 3cc, N-[1-(4-Chloro-2-fluoro-phenyl)-1H-pyrazol-3-yl]-2-((7S,8aR)-3-oxo-hexahydro-oxazolo[3,4-a]pyridin-7-yl)-acetamide], for which the Ki in test [1] turned out to be 8 nM. Same read-out and setting: under `O=C(C[C@H]1CCN2C(=O)OC[C@H]2C1)Nc1cc(-c2cccc(C(F)(F)F)c2)no1` [Example 3hh, 2-((7S,8aR)-3-oxo-hexahydro-oxazolo[3,4-a]pyridin-7-yl)-N-[3-(3-trifluoromethyl-phenyl)-isoxazol-5-yl]-acetamide] stands 39 nM; under `CC1(C)OC(=O)N2CCC(CC(=O)Nc3ccn(-c4ccccc4F)n3)CC21` (centres unmarked) [Example 3i, 2-(1,1-Dimethyl-3-oxo-hexahydro-oxazolo[3,4-a]pyridin-7-yl)-N-[1-(2-fluoro-phenyl)-1H-pyrazol-3-yl]-acetamide], 50 nM. Same read-out and setting: under `O=C(CC1CCN2C(=O)OCC2C1)Nc1cnc(-c2cc(F)cc(F)c2)cn1` (centres unmarked) [Example 3l, N-[5-(3,5-Difluoro-phenyl)-pyrazin-2-yl]-2-(3-oxo-hexahydro-oxazolo[3,4-a]pyridin-7-yl)-acetamide] stands 25 nM; under `O=C(C[C@H]1CCN2C(=O)OC[C@H]2C1)Nc1ccc(-c2cc(F)cc(F)c2)cn1` [Example 3o, N-[5-(3,5-Difluoro-phenyl)-pyridin-2-yl]-2-((7S,8aR)-3-oxo-hexahydro-oxazolo[3,4-a]pyridin-7-yl)-acetamide], 17 nM. As for `CC(=O)N1CCC(C(C)(C)C(=O)Nc2ccc(-c3cc(F)cc(F)c3)cn2)CC1` [Example 4a, 2-(1-Acetyl-piperidin-4-yl)-N-[5-(3,5-difluoro-phenyl)-pyridin-2-yl]-isobutyramide], the “function at the NPY Y5 receptor” value in test [2] is recorded as “antagonists”. In addition, in test [1], the inhibitory constant (Ki) was 66 nM.

For the molecule `CC(=O)N1CCC(CC(=O)Nc2ccc(-c3ccccc3)cc2)CC1` [Example 5a, 2-(1-Acetyl-piperidin-4-yl)-N-biphenyl-4-yl-acetamide], the Ki in test [1] stood at 120 nM. The same measure, in the same setting: under `O=C(C1CCC1)N1CCC(C2(C(=O)Nc3ccc(-c4cc(F)cc(F)c4)cc3)CC2)CC1` [Example 5j] stands 2.7 nM. On the same count and under the same terms, under `O=C(c1ccccn1)N1CCC(C2(C(=O)Nc3ccc(-c4cc(F)cc(F)c4)cc3)CC2)CC1` [Example 5m] stands 14 nM.

With `Cn1nccc1C(=O)N1CCC(C(C)(C)C(=O)Nc2ccc(-c3cc(F)cc(F)c3)cn2)CC1` [Example 5q, N-[5-(3,5-Difluoro-phenyl)-pyridin-2-yl]-2-[1-(2-methyl-2H-pyrazole-3-carbonyl)-piperidin-4-yl]-isobutyramide], the Ki in test [1] is 570 nM.
